Data on 21 compounds can be found in patent publication US11999715B2, “ASK1 inhibiting agents” (BIOGEN MA INC., priority 2018, dated 2024).

Each structure is given as a SMILES string. Bounds are passed on as bounds.

One assay concerns the target T1, ASK1/MAP3K5 (Homo sapiens, UniProt Q99683).
T1 sequence (Q99683 1-1374): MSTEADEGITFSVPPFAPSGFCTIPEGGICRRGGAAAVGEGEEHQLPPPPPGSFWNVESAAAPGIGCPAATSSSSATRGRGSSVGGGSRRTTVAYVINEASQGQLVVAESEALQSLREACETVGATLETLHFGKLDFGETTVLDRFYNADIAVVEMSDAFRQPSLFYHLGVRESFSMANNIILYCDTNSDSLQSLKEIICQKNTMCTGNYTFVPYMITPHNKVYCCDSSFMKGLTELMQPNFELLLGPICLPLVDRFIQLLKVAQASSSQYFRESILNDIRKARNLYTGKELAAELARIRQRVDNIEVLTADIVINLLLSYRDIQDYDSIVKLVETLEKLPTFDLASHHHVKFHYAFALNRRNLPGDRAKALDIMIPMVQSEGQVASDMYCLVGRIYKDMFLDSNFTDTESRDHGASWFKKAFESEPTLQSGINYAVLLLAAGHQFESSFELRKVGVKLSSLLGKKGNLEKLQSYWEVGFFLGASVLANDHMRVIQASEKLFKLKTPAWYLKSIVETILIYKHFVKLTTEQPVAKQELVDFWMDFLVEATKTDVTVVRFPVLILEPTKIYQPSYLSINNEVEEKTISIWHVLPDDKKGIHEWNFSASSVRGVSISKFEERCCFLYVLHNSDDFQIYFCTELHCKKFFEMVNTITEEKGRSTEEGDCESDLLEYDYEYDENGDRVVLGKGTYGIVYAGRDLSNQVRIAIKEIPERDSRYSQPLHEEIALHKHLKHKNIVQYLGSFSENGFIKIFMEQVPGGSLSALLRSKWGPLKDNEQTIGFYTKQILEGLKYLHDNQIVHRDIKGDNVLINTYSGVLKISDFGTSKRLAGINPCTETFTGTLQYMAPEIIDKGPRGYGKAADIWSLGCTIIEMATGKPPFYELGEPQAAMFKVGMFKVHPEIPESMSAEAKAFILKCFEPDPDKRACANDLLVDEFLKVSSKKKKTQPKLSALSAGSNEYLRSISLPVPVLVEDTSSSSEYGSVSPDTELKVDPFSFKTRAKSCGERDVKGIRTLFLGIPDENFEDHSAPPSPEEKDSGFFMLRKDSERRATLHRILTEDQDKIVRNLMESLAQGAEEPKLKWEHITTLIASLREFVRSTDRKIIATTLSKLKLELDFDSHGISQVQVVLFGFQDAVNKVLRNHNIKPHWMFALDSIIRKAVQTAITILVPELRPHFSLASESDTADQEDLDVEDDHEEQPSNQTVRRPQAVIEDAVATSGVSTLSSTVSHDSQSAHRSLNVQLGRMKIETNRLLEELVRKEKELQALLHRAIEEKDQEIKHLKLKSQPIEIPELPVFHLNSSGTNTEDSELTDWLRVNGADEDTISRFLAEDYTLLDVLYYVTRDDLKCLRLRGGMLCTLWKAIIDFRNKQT
As to the kind of experiment: ASK1/MAP3K5 kinase assay by Reaction Biology Corp. (headed ASK1 TR-FRET Assay). It is filed as biochemical. The conditions noted are these: 20 μM myelin basic protein, 10 μM ATP, class symbols. In short, it runs like this: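 Radiometric filter-binding assay with ASK1/MAP3K5, 20 μM MBP substrate and 10 μM ATP plus ^33P-ATP in HEPES pH 7.5 buffer with 1% DMSO. Compounds were preincubated with kinase 20 min, and the reaction then ran 2 hours at room temperature.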

For assay [1], the target named is T2, ASK1 T838 auto phosphorylation (Homo sapiens, UniProt Q99683).
T2 sequence (Q99683 1-1374): T1 sequence (Q99683 1-1374)
The experiment in a line: ASK1 (AUTO PHOS T838) assay, MSD format, in HEK-293T cells transfected with ASK1-V5. It is filed as cell-based. The conditions noted are these: ASK1 T838 auto phosphorylation in HEK-293T cells, 1 hr compound incubation; class symbols. In short, it runs like this: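 HEK-293T cells transiently transfected with full-length ASK1-V5 plasmid were replated, then treated 1 h at 37 °C with a 10-point, 3-fold series from 20 μM. Lysates were probed by MSD with anti-pASK1 T838 and a sulfo-tag secondary, read by chemiluminescence. IC50 came from a 4-parameter fit of normalized % activity.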

As usually defined, the IC50 is the midpoint of a concentration-inhibition curve. Read a high IC50 as weaker potency.

In the case of `C=CCn1cc(C(=O)Nc2cccc(-c3nncn3[C@@H](C)C(F)(F)F)n2)c(OC)n1` [Example 57, (S)-1-Allyl-3-methoxy-N-(6-(4-(1,1,1-trifluoropropan-2-yl)-4H-1,2,4-triazol-3-yl)pyridin-2-yl)-1H-pyrazole-4-carboxamide], the IC50 against ASK1/MAP3K5 is at most 100 nM; in assay [1], at most 1000 nM.

Consider `COc1nn(CC(F)(F)F)cc1C(=O)Nc1cccc(-c2cncn2C(C)C)n1` [Example 106, N-(6-(1-Isopropyl-1H-imidazol-5-yl)pyridin-2-yl)-3-methoxy-1-(2,2,2-trifluoroethyl)-1H-pyrazole-4-carboxamide], for which the IC50 is at most 100 nM on ASK1/MAP3K5 and at most 1000 nM in assay [1].

Consider `CC(C)n1cnnc1-c1cccc(NC(=O)c2cn(-c3cncc(C4CC4)c3)nc2C(F)F)n1` [Example 77, 1-(5-Cyclopropylpyridin-3-yl)-3-(difluoromethyl)-N-(6-(4-isopropyl-4H-1,2,4-triazol-3-yl)pyridin-2-yl)-1H-pyrazole-4-carboxamide], for which the figures for the IC50 (at ASK1/MAP3K5; in assay [1]) were at most 100 nM and at most 1000 nM, respectively.

On to `COc1nn(C)cc1C(=O)Nc1cccc(-c2nncn2[C@H](C)C(F)F)n1` (single isomer, unassigned) [Example 28], for which the values for the IC50 (against ASK1/MAP3K5; in assay [1]) were at most 100 nM and at most 1000 nM, respectively.

Take `Cc1cncc(-n2cc(C(=O)Nc3cccc(-c4nncn4C(C)C)n3)c(C(F)F)n2)c1` [Example 75, 3-(Difluoromethyl)-N-(6-(4-isopropyl-4H-1,2,4-triazol-3-yl)pyridin-2-yl)-1-(5-methylpyridin-3-yl)-1H-pyrazole-4-carboxamide]: the results for the IC50 (on ASK1/MAP3K5; in assay [1]) were at most 100 nM and at most 1000 nM, respectively.

Turning to `CC(C)n1cncc1-c1cccc(NC(=O)c2cn(-c3cccnc3)nc2C(F)F)n1` [Example 94, 3-(Difluoromethyl)-N-(6-(1-isopropyl-1H-imidazol-5-yl)pyridin-2-yl)-1-(pyridin-3-yl)-1H-pyrazole-4-carboxamide], the 50% inhibitory concentration (IC50) against ASK1/MAP3K5 is at most 100 nM; in assay [1], at most 1000 nM.

In the case of `COc1nn(Cc2ccccc2)cc1C(=O)Nc1cccc(-c2nncn2C(C)C)n1` [Example 8, 1-Benzyl-N-(6-(4-isopropyl-4H-1,2,4-triazol-3-yl)pyridin-2-yl)-3-methoxy-1H-pyrazole-4-carboxamide], the results for the IC50 (against ASK1/MAP3K5; in assay [1]) were at most 100 nM and at most 1000 nM, respectively.

On to `C[C@H](n1cnnc1-c1cccc(NC(=O)c2cn(C)nc2C(F)F)n1)C(F)(F)F` [Example 22, (S)-3-(Difluoromethyl)-1-methyl-N-(6-(4-(1,1,1-trifluoropropan-2-yl)-4H-1,2,4-triazol-3-yl)pyridin-2-yl)-1H-pyrazole-4-carboxamide], for which the IC50 (at ASK1/MAP3K5; in assay [1]) was 1000 to 10000 nM in each case.

In the case of `COCCn1cc(C(=O)Nc2cccc(-c3nncn3[C@H](C)C(F)(F)F)n2)c(OC)n1` [Example 53, (R)-3-Methoxy-1-(2-methoxyethyl)-N-(6-(4-(1,1,1-trifluoropropan-2-yl)-4H-1,2,4-triazol-3-yl)pyridin-2-yl)-1H-pyrazole-4-carboxamide], the IC50 is 100 to 1000 nM against ASK1/MAP3K5 and at most 1000 nM in assay [1].

`COc1cncc(-n2cc(C(=O)Nc3cccc(-c4cncn4C(C)C)n3)c(C(F)F)n2)c1` [Example 97, 3-(Difluoromethyl)-N-(6-(1-isopropyl-1H-imidazol-5-yl)pyridin-2-yl)-1-(5-methoxypyridin-3-yl)-1H-pyrazole-4-carboxamide]: the IC50 against ASK1/MAP3K5 was at most 100 nM; in assay [1], at most 1000 nM.

Turning to `COc1nn(-c2cncc(O)c2)cc1C(=O)Nc1cccc(-c2nncn2C(C)C)n1` [Example 70, 1-(5-Hydroxypyridin-3-yl)-N-(6-(4-isopropyl-4H-1,2,4-triazol-3-yl)pyridin-2-yl)-3-methoxy-1H-pyrazole-4-carboxamide], the half-maximal inhibitory concentration (IC50) at ASK1/MAP3K5 was at most 100 nM; in assay [1], 1000 to 10000 nM.

Turning to `Cn1cc(C(=O)Nc2cccc(-c3nncn3C3(C(F)(F)F)CC3)n2)c(C(F)F)n1` [Example 24, 3-(Difluoromethyl)-1-methyl-N-(6-(4-(1-(trifluoromethyl)cyclopropyl)-4H-1,2,4-triazol-3-yl)pyridin-2-yl)-1H-pyrazole-4-carboxamide], the IC50 on ASK1/MAP3K5 is at most 100 nM; in assay [1], at most 1000 nM.

Turning to `COc1nn(C)cc1C(=O)Nc1cccc(-c2nncn2[C@H]2CCN(C(=O)OC(C)(C)C)C2)n1` (single isomer, unassigned) [Example 40], the IC50 against ASK1/MAP3K5 lay within 100 to 1000 nM; in assay [1], 1000 to 10000 nM.

Turning to `COc1cncc(-n2cc(C(=O)Nc3cccc(-c4nncn4C(C)C)n3)c(C(F)F)n2)c1` [Example 78, 3-(Difluoromethyl)-N-(6-(4-isopropyl-4H-1,2,4-triazol-3-yl)pyridin-2-yl)-1-(5-methoxypyridin-3-yl)-1H-pyrazole-4-carboxamide], the IC50 on ASK1/MAP3K5 is at most 100 nM; in assay [1], at most 1000 nM.

Take `CC(C)n1cnnc1-c1cccc(NC(=O)c2cn(-c3cncc(Br)c3)nc2C(F)F)n1` [Example 74, 1-(5-Bromopyridin-3-yl)-3-(difluoromethyl)-N-(6-(4-isopropyl-4H-1,2,4-triazol-3-yl)pyridin-2-yl)-1H-pyrazole-4-carboxamide]: the concentration for half-maximal inhibition (IC50) on ASK1/MAP3K5 is at most 100 nM; in assay [1], at most 1000 nM.

On to `COCCn1cc(C(=O)Nc2cccc(-c3nncn3C3CC3)n2)c(OC)n1` [Example 54, N-(6-(4-Cyclopropyl-4H-1,2,4-triazol-3-yl)pyridin-2-yl)-3-methoxy-1-(2-methoxyethyl)-1H-pyrazole-4-carboxamide], for which the IC50 against ASK1/MAP3K5 is at most 100 nM; in assay [1], at most 1000 nM.

Regarding `CC(C)n1cnnc1-c1cccc(NC(=O)c2cnn(C(C)(C)C)c2)n1` [Example 9, 1-(tert-Butyl)-N-(6-(4-isopropyl-4H-1,2,4-triazol-3-yl)pyridin-2-yl)-1H-pyrazole-4-carboxamide], the values for the IC50 (at ASK1/MAP3K5; in assay [1]) were 100 to 1000 nM and at most 1000 nM, respectively.

In the case of `CC(C)n1cncc1-c1cccc(NC(=O)c2cn(-c3cncc(C4CC4)c3)nc2C(F)F)n1` [Example 96, 1-(5-Cyclopropylpyridin-3-yl)-3-(difluoromethyl)-N-(6-(1-isopropyl-1H-imidazol-5-yl)pyridin-2-yl)-1H-pyrazole-4-carboxamide], the IC50 is 100 to 1000 nM at ASK1/MAP3K5 and at most 1000 nM in assay [1].

As to `CC(C)Oc1cncc(-n2cc(C(=O)Nc3cccc(-c4cncn4C(C)C)n3)c(C(F)F)n2)c1` [Example 100, 3-(Difluoromethyl)-1-(5-isopropoxypyridin-3-yl)-N-(6-(1-isopropyl-1H-imidazol-5-yl)pyridin-2-yl)-1H-pyrazole-4-carboxamide], the IC50 was at most 100 nM against ASK1/MAP3K5 and at most 1000 nM in assay [1].

`COc1nn(CC(F)(F)F)cc1C(=O)Nc1cccc(-c2nncn2[C@@H](C)C(F)(F)F)n1` [Example 103, (S)-3-Methoxy-1-(2,2,2-trifluoroethyl)-N-(6-(4-(1,1,1-trifluoropropan-2-yl)-4H-1,2,4-triazol-3-yl)pyridin-2-yl)-1H-pyrazole-4-carboxamide]: the results for the IC50 (at ASK1/MAP3K5; in assay [1]) were at most 100 nM and at most 1000 nM, respectively.

For the compound `COc1cncc(-n2cc(C(=O)Nc3cccc(-c4nncn4C(C)C)n3)c(OC)n2)c1` [Example 71, N-(6-(4-Isopropyl-4H-1,2,4-triazol-3-yl)pyridin-2-yl)-3-methoxy-1-(5-methoxypyridin-3-yl)-1H-pyrazole-4-carboxamide], the values for the IC50 (against ASK1/MAP3K5; in assay [1]) were at most 100 nM and at most 1000 nM, respectively.
